Measurements reported in PMC9686747, “Antioxidant, Anti-α-Glucosidase, Antityrosinase, and Anti-Inflammatory Activities of Bioactive Components from Morus alba” (Antioxidants, 2022).
Like-named read-outs stand apart in the source and are kept apart here.

Assays:
[1] = DPPH radical scavenging activity; format: biochemical; details: for EC50: isolated components, read-out: SC50 DPPH
Procedure: This assay was performed using a previously reported procedure. This experiment needs to be performed in the dark. Briefly, 100 µL of varying concentrations of extracts or compounds were mixed with 100 µL of 200 µM DPPH solution and incubated at room temperature for 30 min, and the absorbance was measured at 520 nm. DPPH radical scavenging activity was calculated using the following equation.
DPPH scavenging activity (%) = (A0 − A1)/A0 × 100, where A1 is the absorbance of the test sample, and A0 is the absorbance of the control (untreated group).

[2] = ABTS radical scavenging activity; format: biochemical; details: for EC50: isolated components, read-out: SC50 ABTS
Procedure: This assay was performed using a previously reported procedure. This experiment needs to be performed in the dark. First, the reaction reagent was prepared by mixing 28 mM ABTS solution and 9.6 mM potassium persulfate solution (v/v, 1/1) and left in the dark at 4 °C for 16 h before use. The reaction reagent was diluted with ethanol until the absorbance was 0.70 ± 0.02 at 740 nm. Next, 10 μL of the extract or compound was mixed with 190 μL of the reaction reagent and incubated at room temperature for 5 min before measuring the absorbance at 740 nm. The formula of scavenging activity was calculated as follows.
ABTS radical scavenging activity (%) = (A0 − A1)/A0 × 100, where A0 and A1 are the absorbance of the control (untreated group) and test sample, respectively.

[3] = Superoxide radical scavenging activity; format: biochemical; details: isolated components; read-out: SC50 Superoxide
Procedure: This assay was performed using a previously reported procedure. This experiment needs to be performed in the dark. Initially, NBT (300 μM), NADH (468 μM), and PMS (120 μM) were prepared using Tris-HCl buffer (16 mM, pH 8.0). Next, 50 μL of NBT and PMS and 10 μL of the extract or compound were mixed; subsequently, 50 μL of NADH solution was added and incubated at room temperature for 5 min before measuring the absorbance at 560 nm. The equation for the scavenging activity is as follows.
Superoxide radical scavenging activity = (A0 − A1)/A0 × 100, where A0 and A1 are the absorbance of the control (untreated group) and test sample, respectively.

[4] = Ferric reducing antioxidant power (FRAP); format: biochemical
Procedure: The FRAP assay was performed using a previously described procedure. This experiment needs to be performed in the dark. First, the reaction reagent was obtained by mixing acetate buffer (pH 3.6), ferric chloride solution (20 mM), and TPTZ solution (10 mM TPTZ in 40 mM HCl) in a ratio of 10:1:1, respectively. Next, 900 μL of the reaction reagent was mixed with 100 μL of the sample or Trolox in an Eppendorf tube, and the absorbance was measured at 593 nm after 40 min in a dry bath at 37 °C. The FRAP of the extracts was determined by a linear standard calibration curve from 0 to 100 mM Trolox with an R^2 value of 0.9999.

α-glucosidase = molecular target: T1, α-glucosidase (Saccharomyces cerevisiae, UniProt P53341); test: biochemical; format: biochemical
T1 construct: purchased Sigma-Aldrich

tyrosinase = molecular target: T2, tyrosinase (Agaricus bisporus, UniProt C7FF04); test: Tyrosinase inhibitory activity assay; format: biochemical
T2 construct: purchased Sigma-Aldrich

[5] = system: nitric oxide (NO) production in RAW 264.7 cells; test: Nitric oxide inhibitory assay (Griess) in LPS-induced RAW264.7 cells; format: cell-based, Murine; details: Mus musculus, LPS (100 ng/mL)-induced RAW 264.7 cells, read-out: NO Inhibition IC50
Procedure: (§1) Murine RAW264.7 macrophages were cultured at 37 °C under 5% CO2 using a culture medium that was a mixture of DMEM, 10% FBS, and 1% penicillin [29]. When the cells reached […] full growth, the seeded cells were subjected to NO measurement and iNOS protein assay.
The NO inhibition assay was performed as described in [29], with slight modification. RAW264.7 cells were seeded in 96 wells for 24 h. The next day, they were divided into the following groups: medium, medium with LPS (100 ng/mL) added, medium with the positive control (quercetin) and LPS added, and medium with samples and LPS (100 ng/mL) added. The reaction time between the medium and the sample was 1 h before adding LPS and waiting 20 h after adding LPS. Finally, half of the supernatant was transferred into a new 96-well plate and mixed in a 1:1 ratio with Griess reagent. After 15 min in the dark, the reaction was measured at 550 nm.

[6] = system: inducible nitric oxide synthase (iNOS); test: Western blot analysis of iNOS expression; format: cell-based, Murine; details: LPS (100 ng/mL)-induced cells, 24 h; compared to the LPS-induced group; Figure 4
Procedure: as §1
Western blot analysis was performed according to the reference method, with slight modifications. Cells were cotreated with varying concentrations of samples and LPS (100 ng/mL) for 24 h. After washing the cells with ice-cold PBS, the proteins were collected with cell lysis buffer and stored at −20 °C for subsequent experiments. The quantified proteins were separated using a 10% SDS-polyacrylamide gel. Next, the proteins were transferred to polyvinylidene fluoride (PVDF) membranes by electrophoresis. The transferred PVDF membranes were immersed in 2% BSA blocking buffer for 2 h and washed two to three times with TBST. Proteins were visualized by specific primary antibodies and soaked overnight. The next day, PVDF membranes were subjected to the TBST wash step again to remove residual primary antibodies and soaked with secondary antibodies for 2 h. Finally, after repeating the TBST wash two to three times, immunoreactivity was detected with ECL reagents, and samples were exposed with a cold light meter and quantified with Image J.

RAW 264.7 cells = test: MTT assay, cell viability; format: cell-based, Murine
Procedure: as §1
The MTT assay was performed according to the reference method, with slight modifications. Cells from the 96-well plates prepared for the NO inhibition assay were added to MTT stock solution (5 mg/mL) and diluted 20-fold with medium. After 2 h, all liquid was removed, and DMSO was added. The absorbance was measured at 570 nm.

[7] = isolated components, mM Trolox equivalents per gram
[8] = isolated compounds, read-out: IC50 α-Glucosidase
[9] = solvent extracts, 50% free radical scavenging

T1 sequence (P53341 whole entry): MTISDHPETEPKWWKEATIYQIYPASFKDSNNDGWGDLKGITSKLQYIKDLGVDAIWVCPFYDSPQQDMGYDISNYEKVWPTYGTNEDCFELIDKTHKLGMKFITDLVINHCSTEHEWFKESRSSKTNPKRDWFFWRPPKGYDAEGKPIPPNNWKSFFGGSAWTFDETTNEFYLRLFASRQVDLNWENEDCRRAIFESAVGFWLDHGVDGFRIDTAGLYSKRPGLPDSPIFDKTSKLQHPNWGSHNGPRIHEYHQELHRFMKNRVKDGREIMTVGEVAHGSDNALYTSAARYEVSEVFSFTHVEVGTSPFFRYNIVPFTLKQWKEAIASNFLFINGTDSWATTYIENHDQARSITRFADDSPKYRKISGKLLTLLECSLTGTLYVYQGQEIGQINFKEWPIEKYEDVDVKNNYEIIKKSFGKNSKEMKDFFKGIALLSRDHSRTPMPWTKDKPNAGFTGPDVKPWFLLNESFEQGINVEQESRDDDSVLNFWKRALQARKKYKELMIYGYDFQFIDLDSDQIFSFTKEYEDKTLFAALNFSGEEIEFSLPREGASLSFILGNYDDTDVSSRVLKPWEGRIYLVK
T2 sequence (C7FF04 1-392 limits assumed): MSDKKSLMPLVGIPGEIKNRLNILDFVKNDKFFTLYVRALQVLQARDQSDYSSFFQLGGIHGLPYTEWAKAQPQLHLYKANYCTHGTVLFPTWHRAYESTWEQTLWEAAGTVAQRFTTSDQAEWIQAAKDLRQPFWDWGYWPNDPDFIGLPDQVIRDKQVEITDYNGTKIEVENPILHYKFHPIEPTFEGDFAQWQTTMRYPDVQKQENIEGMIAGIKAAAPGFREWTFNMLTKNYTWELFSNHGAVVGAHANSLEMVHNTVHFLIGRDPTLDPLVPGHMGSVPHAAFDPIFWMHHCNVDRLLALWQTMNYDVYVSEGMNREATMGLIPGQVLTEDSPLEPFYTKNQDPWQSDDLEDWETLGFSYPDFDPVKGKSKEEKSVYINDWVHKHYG

Structure (SMILES)	EC50 [1]	EC50 [2]	EC50 [3]	TE FRAP [4, 7]	IC50 (α-glucosidase; [8])	IC50 (tyrosinase)	IC50 ([5]; isolated components)	IC50 (α-glucosidase)	also measured
CC(C)=CCc1c(-c2ccc(O)cc2O)oc2c3c(cc(O)c2c1=O)OC(C)(C)C=C3 [Morusin (2), morusin]	> 200 µM	44.2 ± 8.07 µM	> 200 µM	583.43 ± 25.79 mM/g	15.7 ± 2.15 µM	> 400 µM	9.87 ± 0.59 µM	–	iNOS expression (Western blot) [6]: significantly reducing the expression of iNOS
CC(C)=CCc1c(O)ccc(C(=O)[C@@H]2[C@@H](c3c(O)cc(O)c4c(=O)c(CC=C(C)C)c(-c5ccc(O)cc5O)oc34)C=C(C)C[C@H]2c2ccc(O)cc2O)c1O [Kuwanon H (6), kuwanon H]	> 200 µM	8.68 ± 0.93 µM	> 200 µM	1750.96 ± 36.30 mM/g	4.06 ± 0.12 µM	218 ± 41 µM	40.5 ± 4.38 µM	–	α-glucosidase inhibition, times more effective than acarbose (α-glucosidase; versus positive control acarbose): approximately 100 times; α-glucosidase inhibition, times more potent than other compounds (α-glucosidase; versus the other isolated compounds): 2–20 times
Cc1cc(C(C)(C)C)c(O)c(C(C)(C)C)c1 [BHT, butylated hydroxytoluene, reference compound]	89.8 ± 7.03 µM	116 ± 25.1 µM	–	4385.56 ± 78.88 mM/g	–	–	–	–	SC50 DPPH [1, 9]: 19.75 ± 1.79 µg/mL; SC50 ABTS [2, 9]: 25.87 ± 5.83 µg/mL; TE FRAP ([4]; solvent extracts, mM Trolox equivalents per gram of extract): 4385.56 ± 45.54 mM/g
CC(C)=CCc1c(-c2ccc(O)cc2O)oc2c([C@H]3C=C(C)C[C@@H](c4ccc(O)cc4O)[C@@H]3C(=O)c3ccc(O)cc3O)c(O)cc(O)c2c1=O [Kuwanon G (5), kuwanon G]	> 200 µM	9.28 ± 1.02 µM	188 ± 19.1 µM	3549.22 ± 160.65 mM/g	–	100 ± 9.62 µM	17.8 ± 0.5 µM	7 ± 0.31 µM	TE FRAP ([4]; isolated components, mM Trolox equivalents per gram, listed as 5): 3549.22 ± 160.65 mM/g
O=c1c(O)c(-c2ccc(O)cc2O)oc2cc(O)cc(O)c12 [Morin (1), morin]	17.5 ± 3.43 µM	12.7 ± 5.98 µM	54.5 ± 19 µM	2963.28 ± 63.65 mM/g	–	199 ± 84.4 µM	43.3 ± 4.61 µM	90.1 ± 10.2 µM	TE FRAP ([4]; isolated components, mM Trolox equivalents per gram, listed as 1): 2963.28 ± 63.65 mM/g
O=c1ccc2ccc(O)cc2o1 [Umbelliferone (4), umbelliferone]	> 200 µM	> 200 µM	> 200 µM	145.23 ± 35.46 mM/g	492 ± 12.8 µM	–	36.8 ± 2.26 µM	–	IC50 (tyrosinase; isolated compounds, read-out: IC50 Tyrosinase): > 400 µM
Oc1cc(O)cc(/C=C/c2ccc(O)cc2O)c1 [Oxyresveratrol (3), oxyresveratrol]	44.4 ± 12.5 µM	9.5 ± 2.08 µM	> 200 µM	2402.22 ± 32.91 mM/g	–	1.89 ± 0.59 µM	25.4 ± 3.47 µM	8.35 ± 0.46 µM	TE FRAP ([4]; isolated components, mM Trolox equivalents per gram, listed as 3): 2402.22 ± 32.91 mM/g
O=c1c(O)c(-c2ccc(O)c(O)c2)oc2cc(O)cc(O)c12 [Quercetin, quercetin, reference compound]	–	–	–	–	–	–	13.2 ± 2 µM	–	IC50 ([5]; solvent extracts): 3.98 ± 0.28 µg/mL; cell viability (MTT) (RAW 264.7 cells; isolated compounds, Figure 3, except for the high dose of 100 μM): slight cytotoxicity at higher doses; cell viability (MTT) (RAW 264.7 cells; solvent extracts, Figure 1): slight cytotoxicity at higher doses
